Assay results published in US12329158B2, “Large-scale methods of uniformly coating packaging surfaces with a volatile antimicrobial to preserve food freshness” (AGROFRESH INC., priority 2013, dated 2025).
Values after ≈ are worked out from the molar mass of the structure shown. Read-outs that look alike come from different tables or passages of the source.

Assays:
Penicillium expansum [1] = assay: Blue mold on apple and pear, volatile assay (Example 25); details: 50 mg/L, day 3 at 21 C after 5 days at 1 C
Method: Two apples, pears or oranges are placed in a clamshell, and three fresh wounds are made near the equatorial region of each fruit. Each fruit wound is then inoculated with 20 μL of 1×10^6 spores per mL of Penicillium expansum or digitatum suspension, respectively. The inoculum is allowed to dry for two hours prior to treatment application as a volatile or contact.
Volatile Assay: Clamshells are then placed at the bottom of a 2.55-L SnapWare airtight container (Model #109842). […] The solutions are pipetted into Whatman filter disks mounted to the inside lid of the container. The chambers are then incubated at 1° C. for 5 days, removed to 21° C., and evaluated on day 3 by determining the diameter (mm) of rot development (browning) or sporulation.

Phytophthora capsici = assay: Volatile MIC assay (Example 11); type: cell-based; details: P. capsici
Method: (§1) A 3-mL volume of full-strength Potato Dextrose Agar (PDA) is added to each well. After cooling, 1 μL of 1×10^5 spores per mL of Botrytis cinerea, Penicillium expansum, Alternaria alternata, Glomerella cingulata, Penicillium digitatum, Monilinia fruticola, Aspergillus brasiliensis, Colletotrichum acutatum, Fusarium sambucinum, Phytophthora capsici, Geotrichum candidum, Aspergillus niger, Diplodia gossypina or Diaporthe citrii suspension is spotted onto the center of the agar. A Whatman #1 filter disk (Cat. No. 1001-0155) is placed, in duplicate, on the underside of a polyethylene PCR plate sealing film. […] The headspace around the inoculum is then sealed inside the well by the film with the adhering disk containing the fungicide by inverting the plates over the treated disks and sealing to prevent any of the chemical from flaking from the disk and falling onto the inoculated agar. After 3 days of storage at 23° C., cultures are evaluated for percent growth relative to control.

Penicillium expansum [2] = assay: Volatile MIC assay (Example 11); type: cell-based; details: P. expansum
Method: as §1

Alternaria alternata = assay: Volatile MIC assay (Example 11); type: cell-based; details: A. alternata
Method: as §1

Penicillium digitatum = assay: Volatile MIC assay (Example 11); type: cell-based; details: P. digitatum
Method: as §1

Geotrichum candidum = assay: Volatile MIC assay (Example 11); type: cell-based; details: G. candidum
Method: as §1

Fusarium sambucinum = assay: Volatile MIC assay (Example 11); type: cell-based; details: F. sambucinum
Method: as §1

Aspergillus niger = assay: Volatile MIC assay (Example 11); type: cell-based; details: A. niger
Method: as §1

Diplodia gossypina = assay: Volatile MIC assay (Example 11); type: cell-based; details: Lasiodiplodia theobromae, D. gossypina
Method: as §1

Aspergillus brasiliensis = assay: Volatile MIC assay (Example 11); type: cell-based; details: A. brasiliensis
Method: as §1

Botrytis cinerea [3] = assay: Volatile MIC assay (Example 11); type: cell-based; details: B. cinerea
Method: as §1

Colletotrichum acutatum = assay: Volatile MIC assay (Example 11); type: cell-based; details: C. acutatum
Method: as §1

[4] = tested on: C. krusei (or I. orientalis); assay: In vitro volatile assay, yeast infection species (Example 27); type: cell-based, Issatchenkia orientalis; details: Pichia kudriavzevii
Method: More specifically, growth inhibition of yeast infection fungal species C. albicans and C. krusei (or I. orientalis) by volatile treatment of Compound 10 was assessed via a volatile assay.
Volatile assay: 6-well (16.5 mL volume per well) microtiter plates are used in an in vitro inhibition assay for Compound 10 (i.e., Compound A). A 7.5-mL volume of half strength PDA is added to each well. After drying, a mycelial plug (5 mm diameter) is aseptically obtained from actively growing cultures of C. albicans and C. krusei (or I. orientalis) and placed at the center of the plate with the mycelial side in contact with the agar. A Whatman #1 filter disk (Cat. No. 1001-325) is placed, in duplicate, on the underside of a polyethylene PCR plate sealing film. […] The acetone/methanol is permitted to evaporate for 5 minutes. The headspace around the inoculum is then sealed inside the well by the film with the adhering disk containing the fungicide and incubated inverted for 5 days at 28° C.

Botrytis cinerea [5] = assay: Volatile release from materials treated by sublimation (Example 14); type: cell-based
Method: An in vitro assay is used to evaluate the ability of compound A to volatilize from different materials and control fungal growth. Cardboard box (Category 1), PET plastic (Polyethylene terepthalate—PET) and Polyethylene are used. The materials are cut into equal dimensions (10×19 cm^2) and placed inside a 36-L acrylic desiccator cabinet (Fisher Scientific, cat no. 08-642-23C) in duplicate.
The acetone is allowed to evaporate for 1 minute at 60° C. Compound A is then introduced as a gas into the cabinets by a sublimation device (copper tube heated to 180° C. with fan flow at 0.5 L/min) to achieve a final headspace concentration of 0.3, 0.06 and 0.012 mg/L). The chambers are then incubated at 23° C. for 24 hours, then treated materials are carefully removed and placed inside a clean 10.8 cup SnapWare airtight container (Model #109842) containing a 10-cm diameter Petri dish with PDA and inoculated with 1 μL of […] of B. cinerea. The containers are then tightly sealed for 3 days at 23° C. After 3 days of storage, cultures are evaluated for percent growth relative to control.

Structure (SMILES): OB1OCc2cc(F)ccc21 [Compound A, 5-fluoro-1,3-dihydro-1-hydroxy-2,1-benzoxaborole]
- Apple Browning (mm) (Penicillium expansum [1]): 0.4 mm
- Apple Sporulation (mm) (Penicillium expansum [1]): 0.0 mm
- Pear Browning (mm) (Penicillium expansum [1]): 5.7 mm
- Pear Sporulation (mm) (Penicillium expansum [1]): 0.0 mm
- MIC (Phytophthora capsici): 1.1 µg/mL (≈ 7.24 µM)
- MIC (Penicillium expansum [2]): 1.1 µg/mL (≈ 7.24 µM)
- MIC (Alternaria alternata): 2.2 µg/mL (≈ 14.5 µM)
- MIC (Penicillium digitatum): 2.2 µg/mL (≈ 14.5 µM)
- MIC (Geotrichum candidum): 8.9 µg/mL (≈ 58.6 µM)
- MIC (Fusarium sambucinum): 1.1 µg/mL (≈ 7.24 µM)
- MIC (Aspergillus niger): 2.2 µg/mL (≈ 14.5 µM)
- MIC (Diplodia gossypina): 1.1 µg/mL (≈ 7.24 µM)
- MIC (Aspergillus brasiliensis): 2.2 µg/mL (≈ 14.5 µM)
- MIC (Botrytis cinerea [3]): 2.2 µg/mL (≈ 14.5 µM)
- MIC (Colletotrichum acutatum): 4.4 µg/mL (≈ 29 µM)
- MIC ([4]; 120 h, read-out: minimum inhibitory concentration (MIC) for C. krusei): 35.7 µg/mL (≈ 235 µM)
- inhibition at 0.017 µg/mL ([4]; volatile, 0.017 mg/L, read-out: Growth Inhibition (%) C. krusei/I. orientalis): -1.3%
- inhibition at 0.035 µg/mL ([4]; volatile, 0.035 mg/L, read-out: Growth Inhibition (%) C. krusei/I. orientalis): -1.4%
- inhibition at 0.07 µg/mL ([4]; volatile, 0.07 mg/L, read-out: Growth Inhibition (%) C. krusei/I. orientalis): 0.5%
- inhibition at 0.1 µg/mL ([4]; volatile, 0.1 mg/L, read-out: Growth Inhibition (%) C. krusei/I. orientalis): 0.4%
- inhibition at 0.3 µg/mL ([4]; volatile, 0.3 mg/L, read-out: Growth Inhibition (%) C. krusei/I. orientalis): 1.2%
- inhibition at 0.6 µg/mL ([4]; volatile, 0.6 mg/L, read-out: Growth Inhibition (%) C. krusei/I. orientalis): -5.2%
- inhibition at […] ([4]; volatile, 1.1 mg/L, read-out: Growth Inhibition (%) C. krusei/I. orientalis): -0.2%
- inhibition at […] ([4]; volatile, 2.2 mg/L, read-out: Growth Inhibition (%) C. krusei/I. orientalis): 18.2%
- inhibition at […] ([4]; volatile, 4.5 mg/L, read-out: Growth Inhibition (%) C. krusei/I. orientalis): 22%
- inhibition at […] ([4]; volatile, 8.9 mg/L, read-out: Growth Inhibition (%) C. krusei/I. orientalis): 30.5%
- Incidence (%) (Botrytis cinerea [5]; Rate 0.012 mg/L, Cardboard): 100.0%
- Incidence (%) (Botrytis cinerea [5]; Rate 0.012 mg/L, Clamshell): 100.0%
- Incidence (%) (Botrytis cinerea [5]; Rate 0.012 mg/L, Polyethylene): 99.0%
- Incidence (%) (Botrytis cinerea [5]; Rate 0.06 mg/L, Cardboard): 91.7%
- Incidence (%) (Botrytis cinerea [5]; Rate 0.06 mg/L, Clamshell): 100.0%
- Incidence (%) (Botrytis cinerea [5]; Rate 0.06 mg/L, Polyethylene): 86.7%
- Incidence (%) (Botrytis cinerea [5]; Rate 0.3 mg/L, Cardboard): 9.3%
- Incidence (%) (Botrytis cinerea [5]; Rate 0.3 mg/L, Clamshell): 4.1%
- Incidence (%) (Botrytis cinerea [5]; Rate 0.3 mg/L, Polyethylene): 4.9%
